Data as given in article PMC8018184, “Evaluation of the Pharmacophoric Role of the O–O Bond in Synthetic Antileishmanial Compounds: Comparison between 1,2-Dioxanes and Tetrahydropyrans” (Journal of Medicinal Chemistry, 2020).
Read-outs that look alike come from different tables or passages of the source.

What was measured:
[1] = tested on: L. donovani promastigotes (MHOM/NP/02/BPK282/0cl4); assay: Promastigote growth inhibition assay (alamarBlue); format: cell-based; conditions: Leishmania donovani, HOMEM with 10% FBS
[2] = tested on: L. donovani promastigotes (MHOM/NP/02/BPK282/0cl4); assay: Promastigote growth inhibition assay (alamarBlue); format: cell-based, Leishmania donovani; conditions: for IC50: Leishmania donovani, 72 h, alamarBlue, HOMEM 20% FBS, compounds as racemates, read-out: IC50 (concentration causing 50% growth inhibition) against promastigotes of L. donovani; for Selectivity index (SI) = CC50/IC50: Vero CC50 / IC50 on promastigotes
Description: The bioactivity of the new tetrahydropyrans 3 was initially evaluated against the extracellular promastigote forms of L. donovani (MHOM/NP/02/BPK282/0cl4) as the reference strain, indicative of the leishmaniasis in the Old World. The results were expressed as IC50, i.e., the concentration of the product required to inhibit the parasite growth by 50%. When a compound could inhibit the promastigote growth, its cytotoxicity was also evaluated on Vero cells (Table 1) and on THP-1 cells (see the Supporting Information, Table S3) and the corresponding selectivity indexes (SIs) were calculated. The performance of each tetrahydropyran 3 was compared with that of the corresponding endoperoxide 2 (Table 1).
Promastigotes of a L. donovani reference strain (MHOM/NP/02/BPK282/0cl4) were maintained at 26 °C in a liquid custom-made medium, HOMEM Cat. no: 1140-082 (Gibco Thermo Fisher Scientific Inc., Waltham, USA), complete composition: S-MEM (Eagle) 1 × 1 liter pack, glucose (1–2 g), sodium bicarbonate (0.3 g), sodium pyruvate (0.11 g), p-aminobenzoic acid (1 mg), biotin (0.1 mg), HEPES (4.77–5.96 g), MEM amino acids (10 mL), MEM nonessential amino acids (10 mL), pH 7.5–7.6, supplemented with 20% fetal bovine serum (FBS, EuroClone SpA, Milan, Italy)[123] and 1% penicillin–streptomycin (EuroClone SpA).
To evaluate the efficacy of the compounds on the extracellular forms of L. donovani, promastigotes in their late log/stationary phase were seeded with the complete HOMEM medium at 10^6 cells mL^–1 in 96-well plates and incubated with tested compounds at a range concentration of 600–1.6 μM in a 26 °C incubator for 72 h. The antileishmanial drug amphotericin B was used as the positive control, and untreated promastigotes were the negative control. Each experiment was performed in duplicate. Stock solution of the compounds was 8 mM in DMSO. […] The alamarBlue assay includes a colorimetric growth indicator based on detection of metabolic activity. Specifically, the system incorporates an oxidation–reduction (REDOX) indicator that changes color in response to chemical reduction of the growth medium resulting from cell growth. The method monitors the reducing environment of proliferating cells; the cell-permeable resazurin is added (nonfluorescent form, blue color) and, upon entering cells, is reduced to resorufin (fluorescent form, red color) as a result of cellular metabolic activity. Evaluation was performed by adding 20 μL of alamarBlue and incubating at 26 °C for 24 h. The reducing environment was evaluated after 24 h by absorbance measurement at the Multiskan ascent plate reader (Thermo Fisher Scientific Inc.) at 550 and 630 nm.

[3] = tested on: ROS in L. donovani promastigotes; assay: Evaluation of intracellular ROS levels (H2DCFDA fluorescence); format: cell-based, Leishmania donovani; conditions: for Intracellular ROS levels compared to negative control (untreated promastigotes): compound at its IC50, 24 h, H2DCFDA; for ROS production compared to positive controls: compound at its IC50, H2O2 20 μM, miltefosine 22 μM
Description: We evaluated the ability of our synthetic compounds to generate reactive oxygen species (ROS) in L. donovani promastigotes. We selected the endoperoxide 2a and the tetrahydropyran 3a as model substrates, which were administered to the parasites in the presence of 2,7-dichlorodihydrofluorescein diacetate (H2DCFDA), a live-cell-permeable dye, which is oxidized by ROS, providing a fluorescent compound (DCF) (see Experimental Section for details).[103] Therefore, the resultant fluorescence is a direct measure of the amount of ROS generated.
To monitor the effect of the compounds on the production of ROS in promastigotes of L. donovani, an oxidant-sensitive green fluorescent dye (2,7-dichlorofluorescein diacetate, H2DCFDA) was used. […] Subsequently, parasitic cells were washed in PBS (pH 7.4), loaded with 10 μM permeant probe H2DCFDA (Sigma, St. Louis, MO, USA), and incubated in the dark for 35 min at 26 °C.[103] H2O2 (20 μM)[124] and miltefosine (22 μM)[125] were used as positive controls. Each experiment was performed in triplicate. Reactive oxygen species (ROS) production was measured as an increase in fluorescence caused by the conversion of nonfluorescent dye to highly fluorescent 2,7-dichlorofluorescein, with an excitation wavelength of 488 nm and an emission wavelength of 530 nm. Plates were read by employing a fluorescence microplate reader Varioskan Flash (Thermo Fisher Scientific Inc.).

[4] = tested on: L. donovani promastigotes; assay: Promastigote growth inhibition in the presence of an iron chelator (DFO or DFP), isobologram; format: cell-based, Leishmania donovani; conditions: for Interaction with the iron chelator DFP (isobologram, FIC): FIC values > 0.5 and < 4; for IC50: Leishmania donovani, no DFO, read-out: IC50 against promastigotes, absence of DFO; for Interaction with the iron chelator DFO (isobologram, ΣFIC): synergism <0.5, antagonism >4.0, else additivity
Description: At first, we determined IC50 and CC50 values of the iron chelator DFO (187 and >400 μM, respectively). Then, the effect of the iron chelator presence on the bioactivity of the two compounds was studied by coincubating 2a and 3a with DFO at different concentrations. The variation of IC50 of the compounds in relation to the different doses of DFO was determined by the alamarBlue assay (Table 3), and the isobole technique was employed to depict the interactions of 2a and 3a with DFO (Figure 6).
The isobole technique was used for depicting synergistic or antagonistic interaction between the iron chelator and the two compounds on the parasite growth (Figure 6). Combinations are expressed as the sum of the fractional inhibitory concentrations (ΣFIC), and FIC values are defined as synergism (<0.5), antagonism (>4.0), and additivity (no interaction). The strength of synergism (or antagonism) is indicated by the degree of deviation from the line of additivity.
[…]. Each compound was added using a concentration range including the IC50 of each compound. Each experiment was performed in duplicate. The viability of the parasites was determined by the alamarBlue assay. The fractional inhibitory concentration (FIC; FIC = IC50 of the drug in the combination/IC50 of the drug when tested alone) of each compound was calculated and plotted as an isobologram.

Row | SMILES | IC50 [1] [nM] | IC50 [2] [µM] | Selectivity index (SI) = CC50/IC50 [2] | Intracellular ROS levels compared to negative control (untreated promastigotes) [3] | ROS production compared to positive controls [3] | Interaction with the iron chelator DFP (isobologram, FIC) [4] | IC50 [4] [µM] | Interaction with the iron chelator DFO (isobologram, ΣFIC) [4]
1 | CCCCC1(CCCC)C[C@H](CNCCCn2ccnc2)[C@](C)(OC)OO1 [2a] | 2700 | 7.5 ± 1.7 | 9.6 | increase in the intracellular ROS levels | lower fluorescence intensity when compared to H2O2 and miltefosine | no antagonism or synergism | 7.5 ± 1.7 | additive effects
2 | CCCCC1(CCCC)CO[C@@](C)(OC)[C@@H](CNCCCn2ccnc2)C1 (racemic) [3a, N-((5,5-Dibutyl-2-methoxy-2-methyltetrahydro-2H-pyran-3-yl)methyl)-3-(1H-imidazol-1-yl)propan-1-amine] | 1900 | 3.4 ± 0.4 | 10.4 | increase in the intracellular ROS levels | higher ROS production when compared to H2O2 | no antagonism or synergism | 3.4 ± 0.4 | additive effects
